Entries after “also recorded” stand apart in the source; their conditions may differ. Where two headings read alike, the source gives them in different places.
Legend:
[1] = target: T1, human α-synuclein aggregates (Homo sapiens, UniProt P37840); test: Fluorescence saturation binding of compounds to α-synuclein aggregates
T1 construct: made in house; host or cells: E. coli BL21 (DE3)
Procedure: 1 μL ampicillin anti-plasmid with α-synuclein in the correct sequence was mixed with 100 μL BL21 (DE3) receptive cells, cooled in an ice bath, added in 600 μL LB medium, and cultured in a 220 rpm shaking bed at 37° C. for 90 min. 150 μL cultured bacterial solution was added to the sterilized dish coated with ampicillin medium evenly. Positive clonal colonies were selected and added to the configured ampicillin medium and cultured in an incubator at 37° C. The cultured positive clones were poured into 1 L of 2×YT medium and cultured in a 220 rpm shaker at 37° C. to make OD 600 0.6 and then cooled to 18° C. Each medium was induced to culture for 16 hours by adding 1 ml of IPTG (500 mM).
The bacteria were centrifuged at high speed for 30 min after ultrasonic. The supernatant was collected to remove DNA and hetero-proteins by Ni-NTA chromatography. α-synuclein monomer was purified by molecular exclusion chromatography and the purity was verified by SDS-PAGE discontinuous electrophoresis.
α-synuclein monomers were prepared into a buffer solution containing 1×PBS, wherein the final protein concentration was 100 μM (about 5 mg/mL), and incubated in a 1000 rpm shaker at 37° C. for 7 days to obtain α-synuclein aggregates. The initial and final concentrations of the monomer protein were determined by the BCA method.
10 mM mother solution of DMSO was prepared from 1 mg of the compound, then diluted to 20 μM with PBS, and made gradient dilution 7 times (3× each dilution); 30 μL of test compound was added to the 384-well plate, following the experimental group was added to 30 μL α-synuclein aggregates (3 μM), and the control group was added to the same amount of PBS. After the 384-well plate was incubated shaking at 50 rpm at room temperature for 1 hour, the plate was taken out to detect the maximum absorption and emission wavelengths of the compound with an ELISA Microplate Reader, and the fluorescence values were detected at these wavelengths, too. The fluorescence changes in different concentrations of compounds were calculated using the experimental group data minus the control group data, and the protein-binding affinity of compounds was obtained using the Saturation binding module of GraphPad Prism.
The binding affinity of the Formula I compound to α-synuclein aggregates is determined by the above method, and the dissociation equilibrium constant Kd is shown in Table 1.

[2] = target: T2, Lewy bodies and Lewy neurites (α-synuclein lesions) (Homo sapiens, UniProt P37840); test: Fluorescence staining of brain slices from patients of dementia with Lewy body (DLB); assay type: binding; settings: for Staining of Lewy bodies and Lewy neurites in DLB patient brain slices: 30 μM compound, frozen amygdala sections 20 μm, fluorescence microscopy, FIG. 1; for Binding to α-synuclein pathological tissue compared with Aβ and Tau pathological tissue (selectivity): DLB versus AD brain slices, FIG. 1 and FIG. 2
T2 construct: from tissue; host or cells: human amygdala, DLB patient, fresh frozen sections
Procedure: Brain slices from patients with dementia with Lewy bodies were taken from the amygdala of a deceased person in stage 2 of dementia with Lewy bodies. Frozen sections of the amygdala with rich α-synuclein were performed with a thickness of 20 μm.
(§1) The tested compound was diluted to 30 μM with PBS solution containing 50% EtOH, following incubated with the fresh frozen brain sections at room temperature for 30 minutes, then washed with 50% ethanol solution for 5 minutes and ultra-pure water twice for 3 minutes each time in sequence. After the sections were buried with an embedding agent (VECTASHIELD H-1000, Vector Laboratories), images of the lesion accumulation area on the sections were obtained by fluorescence microscopy. Analysis software (Image J) was used to quantify the fluorescence radiance of both the lesion area and the area of the non-forming lesion (background) to evaluate binding selectivity.

[3] = Blood-brain barrier permeability test, rat tail vein injection; assay type: in vivo; settings: brain / blood supernatant after centrifugation, intravenous, SD rats, 5 mg/kg tail vein, 20 min after administration, LC-MS/MS, read-out: brain/blood ratio
Procedure: The compound of the invention is injected into a rat tail vein to determine the blood-brain barrier permeability in vivo according to the following method.
Dissolve the tested compound in DMSO, and add castor oil and PBS for dilution (DMSO:castor oil:PBS=1:1:8). SD rats were weighed and given 5 mg/kg in the tail vein. 500 μL of blood was taken 20 min after administration after anesthetized with isoflurane. Cardiac perfusion was performed with 200 mL PBS and stopped until the organ faded, following brain tissue was got out and washed with PBS.
After centrifuging the extracted blood at 9000 rpm for 5 min, 200 μL supernatant was taken and added 800 μL methanol. After centrifuging at 14000 rpm for 10 min, the supernatant was taken and filtered through a 0.22 μm filter membrane and stored at −80° C. for use.
2 mL PBS and 2 mL methanol were added to about 0.5 g of brain tissue to make a tissue homogenization, and then 1 mL homogenate was taken out and centrifuged at 14,000 rpm for 10 min after 2 mL methanol was added, 1 mL supernatant was taken through 0.22 μm filter membrane and stored at −80° C. for use. The concentration of compounds in the above supernatant of blood and brain homogenate were checked by LC-MS/MS, respectively.

Aβ lesions = target: T3, Aβ lesions (Homo sapiens, UniProt P05067); test: Fluorescence staining of brain slices from patients with Alzheimer's disease (AD), Aβ; assay type: binding; settings: 30 μM compound, superior temporal gyrus sections 6 μm, fluorescence microscopy, FIG. 2
T3 construct: from tissue
Procedure: as §1
(§2) The dewaxed brain tissue was fixed in a 10% neutral buffer of formalin solution, embedded with paraffin, and then sliced with a thickness of 6 μm. The staining method is the same as the above method for DLB patients.

[4] = tested on: Tau neurofibrillary filaments; test: Fluorescence staining of brain slices from patients with Alzheimer's disease (AD), Tau; assay type: binding, human; settings: 30 μM compound, superior temporal gyrus sections 6 μm, fluorescence microscopy, FIG. 2
Procedure: as §1, §2

[5] = fluorescence method, α-synuclein aggregates (3 μM), room temperature 1 hour, read-out: Binding affinity (Kd) on human α-synuclein aggregates

T3 sequence (P05067 672-713 limits assumed): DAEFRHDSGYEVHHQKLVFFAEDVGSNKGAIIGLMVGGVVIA

Row | Structure (SMILES) | Kd [1, 5] [nM] | Binding to α-synuclein pathological tissue compared with Aβ and Tau pathological tissue (selectivity) [2] | Kp at 20 min [3] | Staining of Lewy bodies and Lewy neurites in DLB patient brain slices [2] | Kd [1] [nM] | Staining/binding of Aβ lesions in AD patient brain slices (Aβ lesions) | Staining/binding of Tau neurofibrillary filaments in AD patient brain slices [4]
1 | CN1CCN(c2ccc3oc(-c4ccc(N(C)C)nc4)nc3c2)C(=O)C1 [I-4] |  | significantly stronger | ≥ 1 | can stain Lewy bodies and Lewy neurites; also recorded: can well label the α-synuclein in Lewy bodies and Lewy neurites | 100 to 200 | could also detect Aβ lesions; also recorded: very weak binding | fail to Tau neurofibrillary filaments; also recorded: no binding
2 | Fc1ccc(-c2ccc3oc(-c4ccc(N5CCCC5)nc4)nc3c2)cn1 [I-5] | 200 to 500 | significantly stronger | ≥ 1 | can stain Lewy bodies and Lewy neurites; also recorded: can well label the α-synuclein in Lewy bodies and Lewy neurites |  | could also detect Aβ lesions; also recorded: very weak binding | fail to Tau neurofibrillary filaments; also recorded: no binding
3 | Fc1ccc(-c2ccc3nc(-c4ccc(N5CCCC5)nc4)oc3c2)cn1 [I-6] | 200 to 500 | significantly stronger | ≥ 1 | can stain Lewy bodies and Lewy neurites; also recorded: can well label the α-synuclein in Lewy bodies and Lewy neurites |  | could also detect Aβ lesions; also recorded: very weak binding | fail to Tau neurofibrillary filaments; also recorded: no binding
4 | CN(C)c1ccc(-c2nc3cc(N4CCN(CCF)CC4=O)ccc3o2)cn1 [I-10] | 200 to 500 |  |  |  |  |  | 

Further lines, with some results ahead:

Row | Kd [1, 5] [nM] | Binding to α-synuclein pathological tissue compared with Aβ and Tau pathological tissue (selectivity) [2] | Kp at 20 min [3] | Structure (SMILES) | Staining of Lewy bodies and Lewy neurites in DLB patient brain slices [2] | Kd [1] [nM] | Staining/binding of Aβ lesions in AD patient brain slices (Aβ lesions) | Staining/binding of Tau neurofibrillary filaments in AD patient brain slices [4]
5 | 500 to 1000 |  |  | CN(C)c1ccc(-c2nc3cc(-c4cccnc4)ccc3o2)cn1 [I-1] |  |  |  | 
6 | 500 to 1000 |  |  | CN(C)c1ccc(-c2nc3cc(-c4cccnc4)ccc3o2)cc1 [I-2] |  |  |  | 
